Results from patent US9675538B2, “Anti-aging agent containing arctigenin derivative” (ROHTO Pharmaceutical Co., Ltd., priority 2012, dated 2017).

Tests used:
[1] = target: T1, elastase (derived from human leukocyte) (Homo sapiens, UniProt P08246); test: Elastase activity measurement; assay type: biochemical; settings: compared with arctigenin; 37° C., 2 hours, absorbance at 405 nm
T1 construct: elastase (derived from human leukocyte); from tissue; host or cells: human leukocyte
T1 sequence (P08246 30-267): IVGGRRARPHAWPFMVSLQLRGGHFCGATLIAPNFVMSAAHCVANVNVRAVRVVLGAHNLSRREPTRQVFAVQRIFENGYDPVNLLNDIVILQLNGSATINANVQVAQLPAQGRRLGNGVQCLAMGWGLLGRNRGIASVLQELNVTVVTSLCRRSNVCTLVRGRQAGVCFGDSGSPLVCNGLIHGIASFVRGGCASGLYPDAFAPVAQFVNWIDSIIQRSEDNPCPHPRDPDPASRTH
Description: Into a 96-well plate were added 1 μL of each of the samples that was dissolved in DMSO, and 100 μL of elastase (derived from human leukocyte) adjusted to 10 μg/mL. Furthermore, to each of the wells was added to 50 μL of a substrate solution (Suc-(Ala)3-pNa) adjusted to 5 mM. A tris-HCL buffer (pH: 8.0) was used to adjust the final volume thereof to 200 μL. Under a condition at 37° C., the plate was heated for 2 hours. The absorbance of the sample at 405 nm was used as an index of the elastase activity, and the elastase inhibiting activity thereof was calculated in accordance with the following equation: The elastase inhibiting activity (%)=(the absorbance of each of the samples/the absorbance of the control)×100

B16F10 melanoma cells = test: Melanin production inhibition test using B16; assay type: cell-based; settings: 0.1% (w/v), 72 hours, compared with arctigenin, n=3
Description: After 24 hours, the culture solution was removed. […] Furthermore, the cells were cultured for 72 hours.
The absorbance thereof was measured at 475 nm.

[2] = system: Endothelin-1 (ET-1) production from human epidermal keratinocytes; test: Evaluation on production inhibition of endothelin-1 (ET-1) in UVB-irradiated keratinocytes (ELISA); assay type: cell-based; settings: UVB 80 mJ/cm^2, supernatant 48 hours after irradiation, relative to agent-free UVB control = 100
Description: Human epidermal keratinocytes were inoculated into 6-well plates to give an amount of 100000 cells per well, and then the cells were cultured for 3 days until the cells turned confluent. After it was verified that the cells turned confluent, their media were each substituted with PBS (−). The individual plates were irradiated with UVB at an irradiation intensity of 80 mJ/cm^2. After the irradiation with the UVB, DMEM in which arctigenin or each of the arctigenin derivatives was dissolved was added to one of the individual plates. After 48 hours from the irradiation, the supernatant (in the one plate) was collected, and the supernatant was centrifuged at 3000 rpm for 5 minutes. Furthermore, the supernatant therein was collected to prepare specimens for ELISA. As a control, a sample was used which was obtained by collecting a supernatant of an agent-free plate irradiated with UVB irradiation. A device used for measuring ET-1 was an Endthelin-1 Human EIA kit (manufactured by Assay Designs, Inc.). […] In each of FIGS. 1 to 3 and FIGS. 6 to 8, one of its vertical axes represents a relative value of each of the specimens when the ET-1 production amount of the control was regarded as 100. In each of FIGS. 1 to 3 and FIGS. 6 to 8, its graph line represents the respective cell survival rates (of the specimens) when the value of the control was regarded as 100%.

[3] = system: tyrosinase (originating from mushroom); test: Tyrosinase inhibiting activity measurement; assay type: biochemical; settings: test concentration 0.01%, compared with arctigenin
Description: To each well of a 96-well plate were added 1 μL of a 1 w/w % of each of the samples (test concentration: 0.01%) that was dissolved in DMSO, 20 μL of a 400 U/mL of a tyrosinase solution (originating from mushroom), and 79 μL of distilled water. Thereto were added a reaction solution (0.1 mg/mL L-tyrosine solution (Wako Pure Chemical Industries, Ltd.)) and 100 μL of a 1.3-mM copper sulfate pentahydrate solution (Wako Pure Chemical Industries, Ltd.)/a 60-mM phosphate buffer (pH: 6.0). The resultant was incubated at 37° C. for one hour. Thereafter, the absorbance of the sample was measured at 640 nm. This was used as a measured value (testing sample measured value or control measured value). The tyrosinase inhibiting activity (%)=(the absorbance of each of the samples/the absorbance of the control)×100

Row | Compound | elastase inhibiting capability [1] | inhibition of the production of melanin per living cell (B16F10 melanoma cells) | inhibition of the production of ET-1 [2] | tyrosinase inhibiting capability [3]
1 | COc1ccc(C[C@H]2COC(=O)[C@@H]2Cc2ccc(OC(C)=O)c(OC)c2)cc1OC [Example 1, Acetoxyarctigenin] | far stronger elastase inhibiting capability than arctigenin | – | – | –
2 | Arctigenin Propionate [Example 2] | far stronger elastase inhibiting capability than arctigenin | more significantly inhibited the production of melanin per living cell than arctigenin | – | –
3 | Palmitate Arctigenin [Comparative Example 1] | – | – | does not significantly inhibit the production of ET-1 | no tyrosinase inhibiting capability
